According to patent publication US7618657B2, “Active ingredients preparation and single compound purification from traditional Chinese herbal medicine Fructus Trichosanthis and uses thereof” (priority 2003, dated 2009):

Columns and labels:
K562 cells [1] = assay: TMB staining of hemoglobin positive K562 cells; assay type: cell-based, human; details: six days culture, hydroxyurea (positive control) 25.0 μg/ml
Method: K562 cells (ATCC) were cultured in RPMI 1640 (Gibco) supplemented with 10% fetal calf serum (FCS, Gibco) and 1% PSN (Gibco). The cultures were maintained under a humidified atmosphere with 95% air/5% CO2 at 37° C.
The hemoglobin positive K562 cells can be identified by 3,3′,5,5′-tetramethylbenzidine (TMB, Sigma) staining. In brief, 10 μl/cell suspension was pipetted out and mixed with 10 μl TMB working solution. Five minutes later, cells were scored as positive (blue) or negative (pale yellow) at 200× microscope.
Before the assay, K562 cells were scored first by TMB staining to ensure there was no selfdifferentiation (TMB positive cell percentage less than 1.0%). 100 μl/well complete RPMI 1640 was added into a 96-well plate, and 180 μl was added in the first well. 20 μl Trichosanthes extraction components was added into the first well immediately. Then 100 μl of the mixture was transferred to the next well. By such one half dilution method, serial dilutions of Trichosanthes extraction components were got.
100 μl K562 cell suspension with the density of 4×10^4 cells/ml was add into each well of the 96-well plate. […] Then the hemoglobin positive cells were recorded by TMB staining.
Dose-response effect of the lead compound from Trichosanthes was studied on K562 cells which were cultured and assayed as described in example 3. […] Then the hemoglobin positive cells were recorded by TMB staining.

K562 cells [2] = assay: FACS analysis of fetal hemoglobin expression in treated K562 cells; assay type: cell-based, human; details: HU 25 mg/ml, 6 days, FIG. 7
Method: K562 cells were cultured with hydroxyurea (HU, 25 mg/ml) and the lead compound from Trichosanthes (12.5 ng/ml) for 6 days. Then the cells were conjugated with PE labeled mouse anti human fetal hemoglobin monoclonal antibodies (Becton Dickinson) followed by FACS analysis. In brief, 1×10^6 cells were collected in a 15 ml falcon tube and centrifuged in 150 rpm for 5 min. The cell pallet was washed with PBS. Then cells were fixed by gently mixing with 1 ml PBS with 4% formaldehyde (37-40%, Merck) for 1 hr at room temperature. The fixed cells were washed once with PBS and then were resuspended in 100 μl 0.01% Triton X-100 (Merck) in PBS/0.1% BSA (Sigma). 20 μl monoclonal antibody was added in, followed by mixing thoroughly and incubating for 30 min in darkness at room temperature, with frequent gentle shaking. Finally the cells were washed with 1× PBS with 0.1% sodium azide once and kept in 4° C. until analysis.

NC(=O)NO [Hydroxyurea, hydroxyurea]
TMB Positive Cell Percentage (K562 cells [1]): 66.7 ± 4.4%
expression of fetal hemoglobin (FACS, PE labeled anti human fetal hemoglobin antibody) (K562 cells [2]): induced
